Data from PMC5513037, “Examining the influence of specificity ligands and ATP-competitive ligands on the overall effectiveness of bivalent kinase inhibitors” (Proteome Science, 2017).

Legend:
Test in all cases: KAM-matrix competition in K562 lysate;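 as to 0.001 uM KAM: median log10 fold change of treatment over DMSO control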;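 as to 0.1 uM KAM: median log10 fold change of treatment over DMSO control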;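 as to 1 uM KAM: median log10 fold change of treatment over DMSO control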;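 as to 10 uM KAM: median log10 fold change of treatment over DMSO control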
Assay type in all cases: binding
AAK1 = target: T1, AAK1 (Homo sapiens, UniProt Q2M2I8)
T1 construct: endogenous in cells; host or cells: K562
Experimental: (§1) For synthesis of KAM-derivatized resin, packed NHS-activated sepharose 4 fast flow resin (volume = 2 mL; GE Healthcare) was washed with anhydrous DMSO (3 × 10 mL). To the washed NHS-activated sepharose resin was added 0.5 mM KAM in anhydrous DMSO (8 mL; 2 μmol compound/mL of resin), followed by the addition of triethylamine (30 μL). The reaction mixture was vortexed to mix and pelleted by centrifugation (100 x g, 2 min). An aliquot of the supernatant (50 μL) was saved for LC/MS analysis. The reaction mixture was allowed incubate overnight at room temp with end-over-end rotating agitation. On the following day, the reaction mixture was pelleted by centrifugation (100 x g, 2 min). An aliquot of the supernatant (50 μL) was saved for LC/MS analysis. […] 2-(2-Aminoethoxy)ethanol (100 μL; Sigma-Aldrich) was added to the reaction mixture, vortexed, and incubate overnight at room temp with end-over-end agitation. The KAM-derivatized resin was then washed with anhydrous DMSO (3 × 10 mL) and 95% EtOH (3 × 10 mL).
(§2) Data were visualized for further analysis using Spotfire DXP.

GSK3B = target: T2, GSK3B (Homo sapiens, UniProt P49841)
T2 construct: endogenous in cells; host or cells: K562
Experimental: as §1, §2

GSK3A = target: T3, GSK3A (Homo sapiens, UniProt P49840)
T3 construct: endogenous in cells; host or cells: K562
Experimental: as §1, §2

CDK9 = target: T4, CDK9 (Homo sapiens, UniProt P50750)
T4 construct: endogenous in cells; host or cells: K562
Experimental: as §1, §2

RPS6KC1 = target: T5, RPS6KC1 (Homo sapiens, UniProt Q96S38);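 as to 0.001 uM KAM: median log10 fold change of treatment over DMSO control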;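 as to 0.1 uM KAM: median log10 fold change of treatment over DMSO control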;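 as to 1 uM KAM: median log10 fold change of treatment over DMSO control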;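 as to 10 uM KAM: median log10 fold change of treatment over DMSO control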
T5 construct: endogenous in cells; host or cells: K562 cell lysate
T5 sequence (Q96S38 1-1066): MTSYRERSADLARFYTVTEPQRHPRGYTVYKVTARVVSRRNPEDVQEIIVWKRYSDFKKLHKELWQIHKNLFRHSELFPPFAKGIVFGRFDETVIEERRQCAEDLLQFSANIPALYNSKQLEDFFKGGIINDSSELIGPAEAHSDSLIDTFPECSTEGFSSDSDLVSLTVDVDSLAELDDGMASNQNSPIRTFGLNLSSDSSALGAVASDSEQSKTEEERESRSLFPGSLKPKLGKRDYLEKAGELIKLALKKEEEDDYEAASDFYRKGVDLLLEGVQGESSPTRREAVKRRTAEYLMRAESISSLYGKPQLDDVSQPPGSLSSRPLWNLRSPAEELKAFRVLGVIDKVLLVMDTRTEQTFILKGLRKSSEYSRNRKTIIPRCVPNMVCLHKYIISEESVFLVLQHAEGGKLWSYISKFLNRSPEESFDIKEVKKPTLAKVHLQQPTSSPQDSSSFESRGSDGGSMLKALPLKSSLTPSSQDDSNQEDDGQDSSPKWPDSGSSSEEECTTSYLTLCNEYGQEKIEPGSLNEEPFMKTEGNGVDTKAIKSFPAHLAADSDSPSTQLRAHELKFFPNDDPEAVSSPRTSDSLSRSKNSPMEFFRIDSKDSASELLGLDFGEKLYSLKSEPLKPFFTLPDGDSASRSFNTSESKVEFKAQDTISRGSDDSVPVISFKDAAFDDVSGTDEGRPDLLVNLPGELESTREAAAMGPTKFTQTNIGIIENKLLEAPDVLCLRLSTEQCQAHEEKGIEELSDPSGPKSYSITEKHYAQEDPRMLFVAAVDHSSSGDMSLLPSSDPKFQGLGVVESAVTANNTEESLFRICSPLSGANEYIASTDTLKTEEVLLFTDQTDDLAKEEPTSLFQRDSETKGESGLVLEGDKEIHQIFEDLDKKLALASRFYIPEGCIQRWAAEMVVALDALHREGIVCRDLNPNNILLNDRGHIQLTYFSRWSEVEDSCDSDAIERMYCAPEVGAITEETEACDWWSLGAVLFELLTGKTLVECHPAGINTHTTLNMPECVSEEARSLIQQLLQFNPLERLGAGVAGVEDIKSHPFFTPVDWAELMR
Experimental: Supplement 12953_2017_125_MOESM1_ESM.zip/MS_Supp Info.xlsx, sheet "KAM" | column: 10 uM KAM; 1 uM KAM; 0.1 uM KAM; 0.001 uM KAM; RB50

T1 sequence (Q2M2I8 whole entry): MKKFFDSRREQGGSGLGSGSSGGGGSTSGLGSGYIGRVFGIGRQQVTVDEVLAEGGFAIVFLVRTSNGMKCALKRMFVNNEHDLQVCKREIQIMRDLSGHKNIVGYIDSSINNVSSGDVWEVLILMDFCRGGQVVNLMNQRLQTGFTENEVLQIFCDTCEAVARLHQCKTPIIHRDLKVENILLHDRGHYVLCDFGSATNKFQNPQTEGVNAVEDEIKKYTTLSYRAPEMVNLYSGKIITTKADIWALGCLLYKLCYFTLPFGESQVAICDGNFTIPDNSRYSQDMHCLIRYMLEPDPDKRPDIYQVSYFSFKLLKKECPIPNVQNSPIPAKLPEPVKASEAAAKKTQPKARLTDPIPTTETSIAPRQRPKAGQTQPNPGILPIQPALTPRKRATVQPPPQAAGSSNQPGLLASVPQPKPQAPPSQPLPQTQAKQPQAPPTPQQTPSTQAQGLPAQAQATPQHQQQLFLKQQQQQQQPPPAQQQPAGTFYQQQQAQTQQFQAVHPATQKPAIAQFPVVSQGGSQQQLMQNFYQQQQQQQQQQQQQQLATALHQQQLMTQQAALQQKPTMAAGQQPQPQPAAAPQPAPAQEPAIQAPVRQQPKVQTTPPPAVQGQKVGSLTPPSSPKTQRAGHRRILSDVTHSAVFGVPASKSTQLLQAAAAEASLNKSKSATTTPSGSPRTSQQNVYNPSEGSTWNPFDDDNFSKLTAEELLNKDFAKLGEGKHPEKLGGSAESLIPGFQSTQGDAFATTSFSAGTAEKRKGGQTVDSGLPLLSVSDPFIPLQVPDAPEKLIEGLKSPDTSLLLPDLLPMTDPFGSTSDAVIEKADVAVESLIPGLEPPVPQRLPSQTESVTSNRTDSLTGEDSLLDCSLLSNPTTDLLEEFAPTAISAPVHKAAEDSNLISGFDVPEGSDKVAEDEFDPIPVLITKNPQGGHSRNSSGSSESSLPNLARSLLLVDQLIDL
T3 sequence (P49840 whole entry): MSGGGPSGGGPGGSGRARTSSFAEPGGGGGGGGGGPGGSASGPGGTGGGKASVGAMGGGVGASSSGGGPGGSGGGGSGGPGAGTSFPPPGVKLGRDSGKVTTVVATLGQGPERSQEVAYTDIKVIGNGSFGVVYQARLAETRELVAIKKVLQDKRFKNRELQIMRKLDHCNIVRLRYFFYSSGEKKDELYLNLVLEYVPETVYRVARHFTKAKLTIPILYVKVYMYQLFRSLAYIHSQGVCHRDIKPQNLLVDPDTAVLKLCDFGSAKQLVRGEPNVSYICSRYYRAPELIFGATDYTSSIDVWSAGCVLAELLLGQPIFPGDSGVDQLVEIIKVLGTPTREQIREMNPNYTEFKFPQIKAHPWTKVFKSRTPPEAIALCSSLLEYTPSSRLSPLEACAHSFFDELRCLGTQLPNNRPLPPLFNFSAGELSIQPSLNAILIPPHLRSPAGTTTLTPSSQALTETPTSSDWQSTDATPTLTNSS
T4 sequence (P50750 whole entry): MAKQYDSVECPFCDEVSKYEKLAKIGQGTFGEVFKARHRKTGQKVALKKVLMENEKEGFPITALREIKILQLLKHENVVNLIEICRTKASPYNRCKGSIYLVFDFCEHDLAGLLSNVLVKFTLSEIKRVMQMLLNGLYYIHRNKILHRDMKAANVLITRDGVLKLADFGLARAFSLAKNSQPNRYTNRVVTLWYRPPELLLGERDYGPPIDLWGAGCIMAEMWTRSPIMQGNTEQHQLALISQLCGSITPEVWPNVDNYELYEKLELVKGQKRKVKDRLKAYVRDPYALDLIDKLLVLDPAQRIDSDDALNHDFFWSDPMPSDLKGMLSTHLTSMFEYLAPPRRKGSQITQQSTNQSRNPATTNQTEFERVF
T4 sequence (O60563 whole entry partner): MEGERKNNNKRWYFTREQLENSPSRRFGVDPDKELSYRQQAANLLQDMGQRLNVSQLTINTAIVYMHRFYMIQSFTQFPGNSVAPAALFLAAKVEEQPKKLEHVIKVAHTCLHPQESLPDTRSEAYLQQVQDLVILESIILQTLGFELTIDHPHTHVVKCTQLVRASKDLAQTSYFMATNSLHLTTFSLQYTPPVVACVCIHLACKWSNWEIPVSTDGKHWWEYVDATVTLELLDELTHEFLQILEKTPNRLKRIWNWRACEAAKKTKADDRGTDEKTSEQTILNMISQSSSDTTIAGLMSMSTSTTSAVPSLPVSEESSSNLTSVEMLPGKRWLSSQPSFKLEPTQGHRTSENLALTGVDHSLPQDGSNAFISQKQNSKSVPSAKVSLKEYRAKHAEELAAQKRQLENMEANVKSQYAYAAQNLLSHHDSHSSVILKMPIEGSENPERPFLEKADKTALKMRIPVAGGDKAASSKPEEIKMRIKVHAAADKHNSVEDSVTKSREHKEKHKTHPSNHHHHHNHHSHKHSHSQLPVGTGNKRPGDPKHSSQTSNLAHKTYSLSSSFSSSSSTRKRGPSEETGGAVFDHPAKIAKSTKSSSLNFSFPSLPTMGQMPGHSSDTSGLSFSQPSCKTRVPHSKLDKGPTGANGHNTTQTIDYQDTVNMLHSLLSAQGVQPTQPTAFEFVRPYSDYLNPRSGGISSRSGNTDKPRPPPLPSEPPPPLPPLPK
T2 sequence (P49841 whole entry): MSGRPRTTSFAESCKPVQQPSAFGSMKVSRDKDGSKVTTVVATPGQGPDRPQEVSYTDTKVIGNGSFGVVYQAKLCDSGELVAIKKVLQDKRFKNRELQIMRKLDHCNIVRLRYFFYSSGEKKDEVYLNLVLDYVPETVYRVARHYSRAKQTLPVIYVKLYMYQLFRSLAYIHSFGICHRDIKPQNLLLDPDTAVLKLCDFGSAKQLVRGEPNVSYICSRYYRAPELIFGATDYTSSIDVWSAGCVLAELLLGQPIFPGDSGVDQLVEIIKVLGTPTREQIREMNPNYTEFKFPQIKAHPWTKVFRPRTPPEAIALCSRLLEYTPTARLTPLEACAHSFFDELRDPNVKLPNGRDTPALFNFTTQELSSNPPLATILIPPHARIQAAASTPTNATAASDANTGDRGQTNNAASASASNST

N#CCc1ccc(Nc2nc(NCCCN)cc(Nc3cc(C4CC4)[nH]n3)n2)cc1 [KAM]
median Log10 fold change (AAK1; 0.001 uM KAM): -0.03432 | median Log10 fold change (AAK1; 0.01 uM KAM): -0.41 | median Log10 fold change (AAK1; 0.1 uM KAM): -0.6175 | median Log10 fold change (AAK1; 1 uM KAM): -0.6778 | median Log10 fold change (AAK1; 10 uM KAM): -0.7219 | IC50 (AAK1; AAK1, KAM-based affinity matrix, K562 lysates, read-out: RB50 (the source's name)): 8 nM | median Log10 fold change (GSK3B; 0.001 uM KAM): 0.01354 | median Log10 fold change (GSK3B; 0.01 uM KAM): -0.16 | median Log10 fold change (GSK3B; 0.1 uM KAM): -0.4584 | median Log10 fold change (GSK3B; 1 uM KAM): -0.606 | median Log10 fold change (GSK3B; 10 uM KAM): -0.568 | IC50 (GSK3B; GSK3B, KAM-based affinity matrix, K562 lysates, read-out: RB50 (the source's name)): 45 nM | median Log10 fold change (GSK3A; 0.001 uM KAM): 0.002359 | median Log10 fold change (GSK3A; 0.01 uM KAM): -0.1849 | median Log10 fold change (GSK3A; 0.1 uM KAM): -0.4791 | median Log10 fold change (GSK3A; 1 uM KAM): -0.5469 | median Log10 fold change (GSK3A; 10 uM KAM): -0.4904 | IC50 (GSK3A; GSK3A, KAM-based affinity matrix, K562 lysates, read-out: RB50 (the source's name)): 37 nM | median Log10 fold change (CDK9; 0.001 uM KAM): -0.01348 | median Log10 fold change (CDK9; 0.01 uM KAM): -0.02502 | median Log10 fold change (CDK9; 0.1 uM KAM): -0.3345 | median Log10 fold change (CDK9; 1 uM KAM): -0.6226 | median Log10 fold change (CDK9; 10 uM KAM): -0.7136 | IC50 (CDK9; CDK9, KAM-based affinity matrix, K562 lysates, read-out: RB50 (the source's name)): 112 nM | IC50 (RPS6KC1; KAM 0.001-10 uM, read-out: RB50 (the source's name)): > 10000 nM | 0.001 uM KAM (RPS6KC1; relative to 0 uM KAM = 0): -0.005381 | 0.1 uM KAM (RPS6KC1; relative to 0 uM KAM = 0): -0.07914 | 1 uM KAM (RPS6KC1; relative to 0 uM KAM = 0): -0.09953 | 10 uM KAM (RPS6KC1; relative to 0 uM KAM = 0): -0.2964
